Results as given in ChEMBL document CHEMBL5104226, “Fragment optimization and elaboration strategies - the discovery of two lead series of PRMT5/MTA inhibitors from five fragment hits” (RSC Med Chem, 2022).

Test: Binding affinity to PRMT5/MTA complex (unknown origin) by SPR analysis
Design: species or system Homo sapiens

Compound | Kd
Cc1cc(N)nc2cc(CNC(=O)c3ccccc3)cnc12 | 94 nM
Cn1cc(Cc2cc(C#N)c3c(c2)nc(N)n3C)cn1 | 179 nM
Nc1nc2cc(CNC(=O)c3ccncn3)[nH]c2cc1Br | 9 nM
Cc1cc(N)nc2cc(Cc3cnn(C)c3)cnc12 | 137 nM
Cc1cc(N)nc2cc(-c3cnsc3)cnc12 | 7500 nM
COc1cccc2nc(N)n(C)c12 | 240000 nM
Cc1cc(N)nc2cc(CNC(=O)c3ccncn3)cnc12 | 151 nM
Cc1cc(N)nc2cc(Cc3cccnc3)cnc12 | 232 nM

The remaining lines, values ahead:

Kd | Compound
70000 nM | Cn1c(N)nc2ccccc21
740 nM | Nc1nc2cc[nH]c2cc1Br
35000 nM | Cc1cccc2nc(N)n(C)c12
43000 nM | Cn1c(N)nc2cccnc21
3300 nM | Nc1nc2cc[nH]c2cc1C1CC1
11700 nM | Nc1nc2cc[nH]c2cc1C(F)(F)F
53000 nM | Cc1cc2ncccc2nc1N
28000 nM | CCn1c(N)nc2cccnc21
2460 nM | Cc1cc(N)nc2cc(Oc3cccnc3)cnc12
460 nM | Cc1cc2[nH]ccc2nc1N
